{"source": "patent US20070178439A1", "about": "“Control of es cell self renewal and lineage specification, and medium therefor” (priority 2003, published 2007)", "type_in_all_cases": "cell-based, mouse", "key": {"ES cells": {"system": "ES cells", "assay": "ES cell self-renewal versus differentiation in serum-free N2B27 adherent culture with passaging", "details": "for ES cell self-renewal / differentiation: N2B27 serum-free, factor(s) as labelled; for ES cell self-renewal with TGF-β superfamily ligand or other factor in place of BMP4: N2B27, in the presence of LIF", "protocol": "(§1) ES cells were maintained without feeder cells. For serum-free culture, ES cells were plated onto gelatin-coated plates in N2B27 medium (Ying and Smith, 2003) supplemented with 10 ng/ml LIF (Sigma) and 10 ng/ml BMP4 or 200 ng/ml GDF6 (R&D Systems). Cells were passaged every 2-4 days using either enzyme-free Cell Dissociation Buffer (Invitrogen) or 0.025% trypsin/1% chicken serum. Dissociated cells were harvested in N2B27 and pelleted. Supernatant was aspirated and the cell pellet resuspended in N2B27 and replated directly. For single cell cloning, a finely drawn Pasteur pipette pre-loaded with N2B27 was used to pick individual cells into 10 μl drops. Drops were then singly transferred to 96-well plates pre-loaded with 150 μl N2B27 per well with LIF or LIF plus BMP4. After 8 days, ES cell colonies were identified and passaged. To produce chimaeras, ES cells were injected into C57Bl/6 blastocysts. Germline transmission was tested by mating male chimaeras with C57Bl/6 females."}, "Id1 Transfectants": {"system": "Id1 Transfectants", "assay": "Propagation of single ES cells in serum-free medium (single cell cloning), Id1 transfectants", "from_the_text": "Under these conditions the transfectants were not overtly different from parental ES cells or empty vector transfectants. In contrast, in serum-free N2B27, Id transfectants whilst remaining LIF-dependent, were liberated from requirement for BMP. These cells proliferated in LIF alone as rapidly and with as little differentiation as parental ES cells in LIF plus BMP. The cultures could be passaged multiple times with no change in undifferentiated morphology or factor dependence. The ES cell phenotype was confirmed by expression of Oct4 and Nanog mRNAs (FIG. 4D). As a rigorous test of the capacity of Id expression to substitute for serum or BMP/GDF, we plated single cells in N2B27.\nas §1"}, "Id genes": {"system": "Id genes", "assay": "Gene induction in Oct4-selected ES cells (LightCycler RT-PCR, Northern hybridisation)", "details": "overnight in N2B27, then stimulated 45 minutes", "protocol": "(§2) Oct4GiP ES cells (Ying et al., 2002) were cultured in the presence of puromycin for 4-6 days to eliminate differentiated cells. Purified ES cells were cultured in complete medium plus LIF for 24 hours then washed once with PBS and transferred to N2B27 medium overnight prior to stimulation for 45 min. with 20 ng/ml LIF, 50 ng/ml BMP4, LIF plus BMP4, 10 ng/ml TGF-β1 (all R&D Systems) or 15% FCS. Quantitative RT-PCR was carried out using the LightCycler Instrument (Roche). Data were normalised relative to Oct4 amplification. Primer pairs and reaction conditions are available upon request. Northern hybridizations were carried out on 5 μg aliquots of total RNA."}, "Smad1": {"system": "Smad1", "assay": "Immunoblot of active serine phosphorylated Smad1 in undifferentiated ES cells", "details": "15 min or 1 hour stimulation", "protocol": "(§3) Pre-selected Oct4GiP ES cells were transferred to N2B27 medium overnight prior to stimulation with LIF (20 ng/ml), BMP4 (50 ng/ml) or LIF plus BMP4 for 15 min or 1 hour. Phosphorylated stat3, smad1, erk1/2 and p38 were detected by immunoblotting (Cell Signaling Technology). Cell lysis and immunoprecipitation (Nakashima et al., 1997) employed anti-FLAG (Sigma) or anti-Stat3 (Transduction Labs). Immunostaining was performed as described (Ying et al., 2003)"}, "[1]": {"system": "p38 and erk mitogen-activated protein kinases", "assay": "Immunoblot of p38 and erk activation in undifferentiated ES cells", "protocol": "as §3"}, "STAT3": {"system": "STAT3", "assay": "Immunoblot of STAT3 tyrosine 705 phosphorylation in ES cells", "protocol": "as §3"}, "[2]": {"system": "blastocysts / inner cell masses", "assay": "Derivation of ES cells from blastocysts in serum free medium", "details": "ICM dissociated after 4 days of blastocyst culture in LIF only, BMP4 added on replating", "from_the_text": "We investigated whether the response to BMP may be an adaptation of established ES cells to culture or is manifest during the initial stages of ES cell derivation. We plated blastocysts in N2B27 supplemented with BMP plus LIF. After several days expanded inner cell masses (ICMs) were dissociated and replated in the same culture conditions. […] Therefore we subsequently dissociated the ICM after only 4 days of blastocyst culture in LIF only and added BMP4 on replating. […] These could be passaged and expanded as morphologically undifferentiated ES cells. One line (SF1) was characterised further. Upon withdrawal of LIF and BMP, SF1 ES cells underwent neural differentiation in vitro. Moreover, SF1 cells produced extensively chimaeric mice (FIG. 2F). Twelve chimaeras were all male, indicative of sex conversion by highly contributing XY ES cells (Bradley et al., 1984).\nStrain 129 mice were ovariectomised on the third day of pregnancy and embryos in diapause flushed 4 days later (Nichols et al., 1990). Intact blastocysts were plated on gelatin-coated plastic in N2B27 supplemented with LIF (10 ng/ml). After 3-6 days the central mass of each explant was picked, rinsed in PBS and placed in a drop of trypsin for a few minutes. […]"}, "[3]": {"system": "tis11, c-fos, junB, socs3", "assay": "Induction of known LIF target genes in Oct-selected ES cells (real time RT-PCR)", "details": "45 min stimulation", "protocol": "as §2"}, "[4]": {"details": "Id1 transfectants, single cells, N2B27 serum-free"}}, "note": "Entries after “also recorded” stand apart in the source; their conditions may differ.", "data": [{"molecule": "C[S+]([O-])c1ccc(-c2nc(-c3ccncc3)c(-c3ccc(F)cc3)[nH]2)cc1", "note": "(stereo not drawn) [SB203580, reference compound]", "values": [{"measurement": "Effect of p38 inhibitor on balance of self-renewal and neural differentiation in LIF only", "setting": "ES cells; 30 μM, N2B27", "result": "does not suppress; also recorded: did not alter the balance between self-renewal and neural differentiation"}, {"measurement": "Effect of p38 inhibitor on self-renewal in LIF plus BMP", "setting": "ES cells; 30 μM, N2B27", "result": "does not suppress; also recorded: no noticeable effect"}, {"measurement": "Overall cell viability in LIF only", "setting": "ES cells; N2B27", "result": "appeared to enhance overall cell viability"}]}, {"molecule": "LIF: gp130 receptor binding cytokine, Leukaemia Inhibitory Factor", "values": [{"measurement": "Number of colonies expanded", "setting": "Id1 Transfectants; [4]", "result": 16}, {"measurement": "Number of colonies formed at day 8", "setting": "Id1 Transfectants; [4]", "result": 19}, {"measurement": "Frequency of undifferentiated passageable colony formation from single cells", "setting": "Id1 Transfectants; Id transfectants, N2B27", "result": 10, "unit": "%"}, {"measurement": "ES cell self-renewal / differentiation", "setting": "ES cells", "result": "reduces but does not eliminate neural differentiation"}, {"measurement": "Passages after which number of undifferentiated ES cells began to decline", "setting": "ES cells; successive passaging in N2B27", "result": "2-3 passages"}]}, {"molecule": "TGF-β1: TGF-β superfamily member, not a BMP receptor ligand", "values": [{"measurement": "ES cell self-renewal with TGF-β superfamily ligand or other factor in place of BMP4", "setting": "ES cells", "result": "no discernible effect on ES cells"}, {"measurement": "Id gene (Id1, Id2, Id3) mRNA induction", "setting": "Id genes", "result": "Neither activin (data not shown) nor TGF-β1 induce Id gene expression"}]}, {"molecule": "activin", "values": [{"measurement": "ES cell self-renewal with TGF-β superfamily ligand or other factor in place of BMP4", "setting": "ES cells", "result": "increased viability and/or proliferation but did not suppress differentiation"}, {"measurement": "Id gene (Id1, Id2, Id3) mRNA induction", "setting": "Id genes", "result": "Neither activin (data not shown) nor TGF-β1 induce Id gene expression"}]}, {"molecule": "fibronectin", "values": [{"measurement": "Passages over which undifferentiated Oct4-GiP cells could be expanded", "setting": "ES cells; N2B27, in combination with LIF", "result": "at least 10 passages"}, {"measurement": "ES cell self-renewal with TGF-β superfamily ligand or other factor in place of BMP4", "setting": "ES cells", "result": "more differentiation and slower population expansion than in BMP"}, {"measurement": "Id gene (Id1, Id2, Id3) mRNA induction", "setting": "Id genes", "result": "induced by foetal calf serum and by fibronectin, although to a lesser extent than by BMP"}]}, {"molecule": "BMP4: BMP receptor ligand, agonist of the TGF-β superfamily signalling pathway (protein, UniProt P12644 293-408, looked up) Bone morphogenetic protein 4: SPKHHSQRARKKNKNCRRHSLYVDFSDVGWNDWIVAPPGYQAFYCHGDCPFPLADHLNSTNHAIVQTLVNSVNSSIPKACCVPTELSAISMLYLDEYDKVVLKNYQEMVVEGCGCR", "values": [{"measurement": "ES cell self-renewal / differentiation", "setting": "ES cells", "result": "differentiation into sheets of flattened epithelial-like cells"}, {"measurement": "Id gene (Id1, Id2, Id3) mRNA induction", "setting": "Id genes", "result": "strongly induced"}, {"measurement": "Phosphorylation of Smad1", "setting": "Smad1", "result": "Increased phosphorylation of Smad1"}, {"measurement": "Erk activation in response to LIF in presence of BMP", "setting": "[1]; LIF plus BMP", "result": "not appreciably inhibited"}, {"measurement": "Activation of p38 and erk", "setting": "[1]; undifferentiated ES cells, 15 min or 1 hour stimulation", "result": "enhances the basal activation of p38 and, by one hour, of erk"}, {"measurement": "STAT3 activation (phosphorylation of tyrosine 705)", "setting": "STAT3; BMP alone", "result": "does not activate STAT3"}, {"measurement": "STAT3 activation by LIF in presence of BMP", "setting": "STAT3; LIF plus BMP", "result": "Nor does it increase STAT3 activation by LIF"}, {"measurement": "Formation of primary ES cell colonies", "setting": "[2]", "result": "primary ES cell colonies did form"}, {"measurement": "Induction of junB and socs3 mRNA", "setting": "[3]", "result": "more highly induced by LIF in the presence of BMP"}, {"measurement": "Induction of tis11 and c-fos mRNA", "setting": "[3]", "result": "showed no response to BMP"}]}, {"molecule": "GDF-6: BMP relative growth and differentiation factor-6 (protein, UniProt Q6KF10 336-455, looked up) Growth/differentiation factor …: TAFASRHGKRHGKKSRLRCSKKPLHVNFKELGWDDWIIAPLEYEAYHCEGVCDFPLRSHLEPTNHAIIQTLMNSMDPGSTPPSCCVPTKLTPISILYIDAGNNVVYKQYEDMVVESCGCR", "values": [{"measurement": "ES cell self-renewal with TGF-β superfamily ligand or other factor in place of BMP4", "setting": "ES cells", "result": "similarly supported ES cell self-renewal"}, {"measurement": "Id gene (Id1, Id2, Id3) mRNA induction", "setting": "Id genes", "result": "strongly induced"}]}]}
